Laboratory results published in paper PMC5908784, “Extracellular loops 2 and 3 of the calcitonin receptor selectively modify agonist binding and efficacy” (Biochemical Pharmacology, 2018).
Numbering of substitutions follows the chain as printed. Where two headings read alike, the source gives them in different places. Where a SMILES comes first, the peptide text is derived from it. Bridges are numbered along the chain shown (N, C = ends).

Legend:
Experiment in all cases: ERK1/2 phosphorylation
Assay type in all cases: cell-based
hCTR W361A = molecular target: T1, hCTR W361A (Homo sapiens, UniProt P30988, W361A); details: for Emax: read-out: Emax (% WT); for EC50: pERK, three-parameter logistic fit
T1 construct: expressed in transfected cells
T1 sequence (P30988 25-474 W361A): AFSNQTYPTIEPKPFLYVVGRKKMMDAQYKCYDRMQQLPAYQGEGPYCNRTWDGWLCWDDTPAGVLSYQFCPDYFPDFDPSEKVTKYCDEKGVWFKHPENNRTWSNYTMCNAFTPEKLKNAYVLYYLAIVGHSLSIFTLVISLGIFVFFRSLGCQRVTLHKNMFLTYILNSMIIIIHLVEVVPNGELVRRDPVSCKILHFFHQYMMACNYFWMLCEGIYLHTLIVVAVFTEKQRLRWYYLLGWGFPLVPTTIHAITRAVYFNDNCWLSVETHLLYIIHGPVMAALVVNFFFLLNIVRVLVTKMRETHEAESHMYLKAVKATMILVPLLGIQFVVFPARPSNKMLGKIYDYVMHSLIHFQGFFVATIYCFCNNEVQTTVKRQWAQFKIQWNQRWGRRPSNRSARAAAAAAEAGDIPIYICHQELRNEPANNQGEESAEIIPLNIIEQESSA
Summary of the method: (§1)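 Cells were seeded at 2.5 × 10^4 cells/well and cultured overnight before stimulation. ERK1/2 phosphorylation was normalized to the maximal response to 10% FBS measured at 6 min. EC50 and Emax came from a 3-parameter logistic fit of concentration-response curves.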

hCTR M367A = molecular target: T2, hCTR M367A (Homo sapiens, UniProt P30988, M367A); details: CV1-FlpIn cells, mean ± S.E.M.; for Emax: pERK maximal response; for EC50: pERK, three-parameter logistic fit
T2 construct: c-Myc (N); expressed in transfected cells
T2 sequence (P30988 25-474 M367A): T1 sequence (P30988 25-474 W361A) with A337W, M343A
Summary of the method: as §1

hCTR Y374A = molecular target: T3, hCTR Y374A (Homo sapiens, UniProt P30988, Y374A); details: CV1-FlpIn cells, mean ± S.E.M.; for Emax: pERK maximal response; for EC50: pERK, three-parameter logistic fit
T3 construct: c-Myc (N); expressed in transfected cells
T3 sequence (P30988 25-474 Y374A): T1 sequence (P30988 25-474 W361A) with A337W, Y350A
Summary of the method: as §1

hCTR C289A = molecular target: T4, hCTR C289A (Homo sapiens, UniProt P30988, C289A); details: CV1-FlpIn cells, mean ± S.E.M.; for Emax: pERK maximal response
T4 construct: c-Myc (N); expressed in transfected cells
T4 sequence (P30988 25-474 C289A): T1 sequence (P30988 25-474 W361A) with C265A, A337W
Summary of the method: as §1

hCTR P360A = molecular target: T5, hCTR P360A (Homo sapiens, UniProt P30988, P360A); details: CV1-FlpIn cells, mean ± S.E.M.; for Emax: pERK maximal response
T5 construct: expressed in transfected cells
T5 sequence (P30988 25-474 P360A): T1 sequence (P30988 25-474 W361A) with P336A, A337W
Summary of the method: as §1

[1] = pERK maximal response, hCTR W361A, CV1-FlpIn cells, mean ± S.E.M.
[2] = hCTR W361A, CV1-FlpIn cells, mean ± S.E.M.
[3] = pERK, three-parameter logistic fit

Row | Compound | Emax (hCTR W361A) [%] | Emax (hCTR M367A) [%] | Emax (hCTR Y374A) [%] | Emax (hCTR C289A) [%] | Emax (hCTR P360A) [%] | Emax (hCTR W361A; [1]) [%] | EC50 (hCTR W361A; [2]) [µM] | EC50 (hCTR M367A) [µM] | EC50 (hCTR Y374A) [µM] | EC50 (hCTR C289A; [3]) [µM] | EC50 (hCTR P360A; [3]) [µM]
1 | CC(C)C[C@H](NC(=O)[C@H](CC(N)=O)NC(=O)[C@H](CC(N)=O)NC(=O)[C@H](CO)NC(=O)[C@H](CO)NC(=O)[C@H](CCCNC(=N)N)NC(=O)[C@@H](NC(=O)[C@H](CC(C)C)NC(=O)[C@H](Cc1ccccc1)NC(=O)[C@H](CC(N)=O)NC(=O)[C@H](C)NC(=O)[C@H](CC(C)C)NC(=O)[C@H](CCCNC(=N)N)NC(=O)[C@H](CCC(N)=O)NC(=O)[C@@H](NC(=O)[C@H](C)NC(=O)[C@@H]1CSSC[C@H](NC(=O)[C@@H](N)CCCCN)C(=O)N[C@@H](CC(N)=O)C(=O)N[C@@H]([C@@H](C)O)C(=O)N[C@@H](C)C(=O)N[C@@H]([C@@H](C)O)C(=O)N1)[C@@H](C)O)C(C)C)C(=O)NCC(=O)N1CCC[C@H]1C(=O)N[C@H](C(=O)N[C@@H](CC(C)C)C(=O)N1CCC[C@H]1C(=O)N1CCC[C@H]1C(=O)N[C@H](C(=O)N[C@@H](CC(N)=O)C(=O)N[C@H](C(=O)NCC(=O)N[C@@H](CO)C(=O)N[C@@H](CC(N)=O)C(=O)N[C@H](C(=O)N[C@@H](Cc1ccc(O)cc1)C(N)=O)[C@@H](C)O)C(C)C)[C@@H](C)O)C(C)C [rAmy] | 42 ± 9 | 77 ± 5 | 61 ± 5 |  |  |  |  |  |  |  | 
2 | CC[C@H](C)[C@H](NC(=O)[C@H](C)NC(=O)[C@@H](NC(=O)[C@H](CCC(N)=O)NC(=O)[C@@H]1CCCN1C(=O)[C@H](Cc1ccccc1)NC(=O)[C@@H](NC(=O)[C@H](Cc1c[nH]cn1)NC(=O)[C@H](Cc1ccccc1)NC(=O)[C@H](CCCCN)NC(=O)[C@H](CC(N)=O)NC(=O)[C@H](Cc1ccccc1)NC(=O)[C@H](CC(=O)O)NC(=O)[C@H](CCC(N)=O)NC(=O)[C@@H](NC(=O)[C@H](Cc1ccc(O)cc1)NC(=O)[C@@H](NC(=O)CNC(=O)[C@H](CC(C)C)NC(=O)[C@H](CCSC)NC(=O)[C@@H]1CSSC[C@H](N)C(=O)NCC(=O)N[C@@H](CC(N)=O)C(=O)N[C@@H](CC(C)C)C(=O)N[C@@H](CO)C(=O)N[C@@H]([C@@H](C)O)C(=O)N1)[C@@H](C)O)[C@@H](C)O)[C@@H](C)O)[C@@H](C)O)C(=O)NCC(=O)N[C@H](C(=O)NCC(=O)N[C@@H](C)C(=O)N1CCC[C@H]1C(N)=O)C(C)C [hCT] | 112 ± 6 | 127 ± 7 | 94 ± 4 | 40 ± 8 | 51 ± 6 |  |  |  |  |  | 
3 | CC(C)C[C@H](NC(=O)CNC(=O)[C@H](C)NC(=O)[C@H](CC(C)C)NC(=O)[C@H](CCCNC(=N)N)NC(=O)[C@H](Cc1cnc[nH]1)NC(=O)[C@@H](NC(=O)[C@@H](NC(=O)[C@@H]1CSSC[C@H](NC(=O)[C@H](C)N)C(=O)N[C@@H](CC(=O)O)C(=O)N[C@@H]([C@@H](C)O)C(=O)N[C@@H](C)C(=O)N[C@@H]([C@@H](C)O)C(=O)N1)C(C)C)[C@@H](C)O)C(=O)N[C@@H](CC(C)C)C(=O)N[C@@H](CO)C(=O)N[C@@H](CCCNC(=N)N)C(=O)N[C@@H](CO)C(=O)NCC(=O)NCC(=O)N[C@H](C(=O)N[C@H](C(=O)N[C@@H](CCCCN)C(=O)N[C@@H](CC(N)=O)C(=O)N[C@@H](CC(N)=O)C(=O)N[C@@H](Cc1ccccc1)C(=O)N[C@H](C(=O)N1CCC[C@H]1C(=O)N[C@H](C(=O)N[C@@H](CC(N)=O)C(=O)N[C@H](C(=O)NCC(=O)N[C@@H](CO)C(=O)N[C@@H](CCCCN)C(=O)N[C@@H](C)C(=O)N[C@@H](Cc1ccccc1)C(N)=O)C(C)C)[C@@H](C)O)C(C)C)C(C)C)C(C)C [hαCGRP] |  | 78 ± 12 | 49 ± 8 |  |  | 49 ± 8 | 0.117 | 0.107 | 0.0617 |  | 
4 | CC(C)C[C@H](NC(=O)[C@H](CCCCN)NC(=O)CNC(=O)[C@H](CC(C)C)NC(=O)[C@@H](NC(=O)[C@@H]1CSSC[C@H](N)C(=O)N[C@@H](CO)C(=O)N[C@@H](CC(N)=O)C(=O)N[C@@H](CC(C)C)C(=O)N[C@@H](CO)C(=O)N[C@@H]([C@@H](C)O)C(=O)N1)C(C)C)C(=O)N[C@@H](CO)C(=O)N[C@@H](CCC(N)=O)C(=O)N[C@@H](CCC(=O)O)C(=O)N[C@@H](CC(C)C)C(=O)N[C@@H](Cc1c[nH]cn1)C(=O)N[C@@H](CCCCN)C(=O)N[C@@H](CC(C)C)C(=O)N[C@@H](CCC(N)=O)C(=O)N[C@H](C(=O)N[C@@H](Cc1ccc(O)cc1)C(=O)N1CCC[C@H]1C(=O)N[C@@H](CCCNC(=N)N)C(=O)N[C@H](C(=O)N[C@@H](CC(N)=O)C(=O)N[C@H](C(=O)NCC(=O)N[C@@H](CO)C(=O)NCC(=O)N[C@H](C(=O)N1CCC[C@H]1C(N)=O)[C@@H](C)O)[C@@H](C)O)[C@@H](C)O)[C@@H](C)O [sCT] | 125 ± 5 | 130 ± 4 | 99 ± 5 | 64 ± 11 | 115 ± 9 |  |  |  |  |  | 
5 | CSCC[C@H](NC(=O)CNC(=O)[C@H](CO)NC(=O)[C@H](Cc1ccccc1)NC(=O)[C@H](CCCNC(=N)N)NC(=O)[C@H](Cc1c[nH]cn1)NC(=O)[C@H](Cc1ccccc1)NC(=O)[C@H](CC(N)=O)NC(=O)[C@H](CC(N)=O)NC(=O)[C@H](CC(C)C)NC(=O)[C@H](CC(N)=O)NC(=O)[C@H](CCCNC(=N)N)NC(=O)[C@H](Cc1c[nH]c2ccccc12)NC(=O)[C@H](Cc1ccc(O)cc1)NC(=O)[C@H](C)NC(=O)[C@H](CO)NC(=O)[C@H](CC(C)C)NC(=O)[C@@H](NC(=O)[C@@H]1CSSC[C@H](N)C(=O)N[C@@H](CO)C(=O)N[C@@H](CC(N)=O)C(=O)N[C@@H](CC(C)C)C(=O)N[C@@H](CO)C(=O)N[C@@H]([C@@H](C)O)C(=O)N1)C(C)C)C(=O)NCC(=O)N[C@@H](Cc1ccccc1)C(=O)NCC(=O)N1CCC[C@H]1C(=O)N[C@@H](CCC(=O)O)C(=O)N[C@H](C(=O)N1CCC[C@H]1C(N)=O)[C@@H](C)O [pCT] (H-CSNLSTCVLSAYWRNLNNFHRFSGMGFGPETP-NH2; disulfide 1-7) |  | 172 ± 10 | 105 ± 8 | 38 ± 4 | 59 ± 7 | 76 ± 6 | 0.00631 | 0.00275 | 0.00269 | 0.00427 | 0.0398
